Test results: patent US7138543B2, “Thiolalkyl benzoic acid derivatives” (Guilford Pharmaceuticals Inc., priority 2001, dated 2006)

test system: chronic constrictive injury-induced rats; test: Neuropathic pain in CCI model (sciatic nerve ligation); format: in vivo; settings: 0.1 mg/kg for 18 days after sciatic nerve ligation, FIG. 14
Protocol: In vivo Assay of NAALADase Inhibitors on Neuropathic Pain in CCI Model
Sciatic nerve ligation, consisting of 4 ligatures tied loosely around the sciatic nerve at 1 mm intervals proximal to the nerve trifurcation, was performed on rats. […] The rats were habituated to a Hargreaves apparatus. An infrared heat source was directed onto the dorsal surface of each rat's hindpaws and the time taken for the rat to withdraw its paws was noted. The difference in scores between the latency of the response for the paw on the operated side versus the paw on the unoperated control side was determined.

Row | SMILES | withdrawal latency difference scores between operated and unoperated paws
1 | O=C(O)c1cccc(-c2cccc(CCS)c2C(=O)O)c1 [Compound 10, 3-(2-mercaptoethyl)-[1,1′-biphenyl]-2,3′-dicarboxylic acid] | normalized the difference in scores

same assay, conditions: 10, 1 or 0.1 mg/kg for 15 days after sciatic nerve ligation, FIG. 13

Row | SMILES | withdrawal latency difference scores between operated and unoperated paws
2 | O=C(O)c1ccc(COc2cccc(CCS)c2C(=O)O)cc1 [Compound 9, 2-[(4-carboxyphenyl)methoxy]-6-(2-mercaptoethyl)-benzoic acid] | normalized the difference in scores

test system: STZ diabetic rats; test: Reversal of diabetic neuropathy in STZ model, delayed dosing: thermal hyperalgesia; format: in vivo; settings: daily p.o., treatment from 5 weeks post STZ, within two weeks of treatment, FIG. 22
Protocol: (§1) In vivo Assay of NAALADase Inhibitors—Reversal of Diabetic Neuropathy in STZ Model
(§2) General Method for STZ Model—Delayed Dosing
(§3) Rats (200–225 grams) were injected with STZ (70 mg/kg) into the tail vein. Diabetes (>350 mg/dl) was confirmed in all rats, 4 weeks after STZ administration. Rats were left untreated until 35–49 days after STZ. Compound D (1, 3, or 10 mg/kg), Compound E (10 mg/kg), or vehicle were dosed daily p.o. following confirmation of hyperalgesia and/or nerve conduction velocity deficits. In separate experiments, onset of treatment was delayed until 60 to 90 days after STZ administration. Nerve conduction velocity or withdrawal response to thermal stimulation of hind paws was measured at intervals, usually bi-weekly for thermal response and monthly for nerve conduction velocity.
Animals were acclimated to the apparatus for at least 5 min. An infra-red source was placed under below the plantar surface of the rat hind-paw. The intensity of the source was adjusted so that latency for normal rats was about 10 secs. Animals were tested for thermal response latency according to the method of Hargreaves et al (Pain 77–88, 1988). Each animal was tested 8 times (4 each hind limb) and the latency of response recorded automatically to nearest 0.1 sec. An average of the last 4 measurements for each paw was calculated (8 total measurements) and noted for each rat.

Row | SMILES | neuropathic hyperalgesia (thermal response latency)
3 | O=C(O)c1cccc(CC(CCCS)C(=O)O)c1 (stereo not drawn) [Compound E, 3-Carboxy-alpha-(3-mercaptopropyl)-benzenepropanoic acid] | reversed towards normal

test system: cortical cell cultures; test: In vitro assay on ischemia (potassium cyanide and 2-deoxyglucose insult); format: cell-based; settings: concentration required to cause a 50% reduction in glutamate toxicity following an ischemic insult; unit inferred
Protocol: In vitro Assay on Ischemia
To examine the in vitro effect of the compounds of the invention on ischemia, cortical cell cultures were treated with various compounds of the invention during an ischemic insult utilizing potassium cyanide and 2-deoxyglucose, and for one hour thereafter. For a description of the experimental method used, see Vornov et al., J. Neurochem., Vol. 65, No. 4, pp. 1681–1691 (1995).

Row | SMILES | EC50 [nM]
4 | O=C(O)c1ccccc1CCS [Compound 1, 2-(2-mercaptoethyl)-benzoic acid] | 846
5 | O=C(O)c1ccc(COc2ccc(CCS)c(C(=O)O)c2)cc1 [Compound 3, 5-[(4-carboxyphenyl)methoxy]-2-(2-mercaptoethyl)-benzoic acid] | 10000
6 | O=C(O)c1cc(OCc2ccccc2)ccc1CCS [Compound 4, 2-(2-mercaptoethyl)-5-(phenylmethoxy)-benzoic acid,] | 9600
7 | O=C(O)c1cccc(COc2ccc(CCS)c(C(=O)O)c2)c1 [Compound 6, 5-[(3-carboxyphenyl)methoxy]-2-(2-mercaptoethyl)-benzoic acid] | 84
8 | O=C(O)c1c(CCS)cccc1OCc1ccccc1 [Compound 7, 2-(2-mercaptoethyl)-6-(phenylmethoxy)-benzoic acid] | 96
9 | O=C(O)c1ccccc1COc1cccc(CCS)c1C(=O)O [Compound 8, 2-[(2-carboxyphenyl)methoxy]-6-(2-mercaptoethyl)-benzoic acid] | 29
10 | O=C(O)c1ccc(COc2cccc(CCS)c2C(=O)O)cc1 [Compound 9, 2-[(4-carboxyphenyl)methoxy]-6-(2-mercaptoethyl)-benzoic acid] | 19
11 | O=C(O)c1cc(CS)ccc1Br [Compound 25, 2-bromo-5-(mercaptomethyl)-benzoic acid] | 2000
12 | O=C(O)c1cccc(-c2ccc(CS)cc2C(=O)O)c1 [Compound 26, 4-(mercaptomethyl)-[1,1′-biphenyl]-2,3′-dicarboxylic acid] | 151
13 | O=C(O)c1cc(CS)ccc1OCc1ccccc1 [Compound 27, 5-(mercaptomethyl)-2-(phenylmethoxy)-benzoic acid] | 728
14 | O=C(O)c1cccc(CCS)c1 [Compound 29, 3-(2-mercaptoethyl)-benzoic acid] | 2400
15 | O=C(O)c1cccc(CS)c1 [Compound 30, 3-(mercaptomethyl)-benzoic acid] | 619

test system: STZ diabetic rats; test: Reversal of diabetic neuropathy in STZ model, delayed dosing: nerve conduction velocity; format: in vivo; settings: daily p.o., within 8 weeks of dosing, persisted through 12 weeks, FIG. 23
Protocol: as §1, §2, §3
Nerve Conduction Velocity Measurements
Sensory and motor nerve conduction velocities were evaluated using the method of De Koning and Gispen (Peptides 8: 415–422, 1987). Electrophysiological evaluation was carried out within one hour of dosing. Animals were anesthetized with isoflurane and stimulating needle electrodes were inserted close to the sciatic nerve at the sciatic notch and the tibial nerve near the ankle. Recording electrodes were placed over the foot muscles. Stimuli were applied and responses recorded. Motor and sensory nerve conduction velocities were calculated by measuring the distance between the sciatic notch and ankle sites, and the latency between the M-wave and the H-reflex.

Row | SMILES | motor nerve conduction velocity
16 | O=C(O)c1cccc(CC(CCCS)C(=O)O)c1 (stereo not drawn) [Compound E, 3-Carboxy-alpha-(3-mercaptopropyl)-benzenepropanoic acid] | reversed the motor nerve conduction velocity towards normal

target: T1, NAALADase (Homo sapiens, UniProt Q04609); test: In vitro inhibition of NAALADase activity; format: biochemical; settings: unit inferred
T1 construct: from tissue; host or cells: unspecified tissue
T1 sequence (Q04609 whole entry): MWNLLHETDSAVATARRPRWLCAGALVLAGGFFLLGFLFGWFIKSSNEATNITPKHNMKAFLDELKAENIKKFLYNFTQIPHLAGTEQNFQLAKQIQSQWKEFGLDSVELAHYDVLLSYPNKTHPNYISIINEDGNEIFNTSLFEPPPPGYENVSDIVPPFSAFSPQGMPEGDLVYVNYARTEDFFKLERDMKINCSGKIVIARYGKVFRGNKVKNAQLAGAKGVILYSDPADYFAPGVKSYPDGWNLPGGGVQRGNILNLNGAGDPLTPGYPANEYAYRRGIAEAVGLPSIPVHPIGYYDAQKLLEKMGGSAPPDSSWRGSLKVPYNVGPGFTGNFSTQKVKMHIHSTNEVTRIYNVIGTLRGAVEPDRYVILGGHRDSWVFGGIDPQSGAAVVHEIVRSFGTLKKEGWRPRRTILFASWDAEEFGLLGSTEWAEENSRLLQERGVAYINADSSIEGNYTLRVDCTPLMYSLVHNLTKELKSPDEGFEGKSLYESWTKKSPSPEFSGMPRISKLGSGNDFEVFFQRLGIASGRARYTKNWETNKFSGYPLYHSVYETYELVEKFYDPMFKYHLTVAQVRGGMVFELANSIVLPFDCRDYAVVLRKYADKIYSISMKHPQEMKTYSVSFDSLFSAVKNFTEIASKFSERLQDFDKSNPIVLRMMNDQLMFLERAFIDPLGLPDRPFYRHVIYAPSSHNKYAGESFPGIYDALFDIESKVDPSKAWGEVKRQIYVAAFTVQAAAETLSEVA
Protocol: In vitro Inhibition of NAALADase Activity
Protocol for Assaying in vitro Inhibition of NAALADase Activity
The following were combined in assay tubes: 100 μL of 10 mM CoCl2, 250 μL of 200 mM Tris chloride, 100 μL tissue, 100 μL of 10 mM NAALADase inhibitor in Bakers H2O, and Bakers H2O to make a total volume of 950 μL. Each assay tube was then incubated for 10 minutes in a 37° C. water bath. […] The assay was stopped by adding 1.0 ml of 0.1 M sodium phosphate.
Glutamate released by the action of the NAALADase enzyme was separated from the assay solution using an anion exchange resin. The resin was equilibrated to 25° C., 2.0 ml of the resin was added to a Pasteur pipette pre-loaded with a single glass bead, and each column was washed twice with distilled H2O. A column was placed over a scintillation vial and 200 μL of an assay sample was loaded onto the column. After draining, glutamate was eluted using two 1.0 ml washes of 1 M formic acid. After addition of 10 ml of scintillation cocktail, each sample was counted for 2 minutes on a scintillation counter.

Row | IC50 [nM] | SMILES
17 | 95 | O=C(O)c1c(CCS)cccc1OCc1ccccc1-c1ccccc1 [Compound 33, 2-(biphenyl-2-ylmethoxy)-6-(2-mercaptoethyl)-benzoic acid]
18 | 0.9 | O=C(O)c1cc(Br)cc(COc2cccc(CCS)c2C(=O)O)c1 [Compound 34, 2-[(3-bromo-5-carboxyphenyl)methoxy]-6-(2-mercaptoethyl)-benzoic acid]
19 | 1.2 | O=C(O)c1ccc(Br)c(COc2cccc(CCS)c2C(=O)O)c1 [Compound 35, 2-[(2-bromo-5-carboxyphenyl)methoxy]-6-(2-mercaptoethyl)-benzoic acid]
20 | 100 | COc1ccc(COc2cccc(CCS)c2C(=O)O)cc1 [Compound 36, 2-(2-mercaptoethyl)-6-[(4-methoxyphenyl)methoxy]-benzoic acid]
21 | 70 | Cc1ccc(COc2cccc(CCS)c2C(=O)O)cc1 [Compound 37, 2-(2-mercaptoethyl)-6-[(4-methylphenyl)methoxy]-benzoic acid]
22 | 0.8 | O=C(O)c1cc(COc2cccc(CCS)c2C(=O)O)ccc1Br [Compound 38, 2-[(4-bromo-3-carboxyphenyl)methoxy]-6-(2-mercaptoethyl)-benzoic acid]
23 | 40 | COc1ccc(C(=O)O)c(COc2cccc(CCS)c2C(=O)O)c1 [Compound 39, 2-[(2-carboxy-5-methoxyphenyl)methoxy]-6-(2-mercaptoethyl)-benzoicacid]
24 | 1 | O=C(O)c1cccc(COc2cccc(CCS)c2C(=O)O)c1 [Compound 40, 2-(3-carboxy-benzyloxy)-6-(2-mercapto-ethyl)-benzoic acid]
25 | 1250 | O=C(O)c1c(CCS)cccc1OCc1ccc(Br)cc1 [Compound 41, 2-(4-bromo-benzyloxy)-6-(2-mercapto-ethyl)-benzoic acid]
26 | 300 | CC(C)(C)c1ccc(COc2cccc(CCS)c2C(=O)O)cc1 [Compound 42, 2-(4-tert-butyl-benzyloxy)-6-(2-mercapto-ethyl)-benzoic acid]
27 | 104 | O=C(O)c1c(CCS)cccc1OCc1cccc(Br)c1 [Compound 43, 2-(3-bromo-benzyloxy)-6-(2-mercapto-ethyl)-benzoic acid]
28 | 954 | COc1cccc(CCS)c1C(=O)O [Compound 44, 2-(2-mercapto-ethyl)-6-methoxy-benzoicacid]
29 | 35200 | O=C(O)c1c(CCS)cccc1OC(c1ccccc1)c1ccccc1 [Compound 45, 2-benzhydryloxy-6-(2-mercapto-ethyl)-benzoic acid]
30 | 12200 | O=C(O)c1c(CCS)cccc1OCc1cccc(Cl)c1 [Compound 46, 2-(3-chloro-benzyloxy)-6-(2-mercapto-ethyl)-benzoic acid]
31 | 75400 | O=C(O)c1c(CCS)cccc1-c1ccccc1 [Compound 47, 3-(2-mercapto-ethyl)-biphenyl-2-carboxylic acid]
32 | 43 | O=C(O)Cc1cccc(CCS)c1C(=O)O [Compound 48, 2-carboxymethyl-6-(2-mercapto-ethyl)-benzoic acid]

The remaining lines, values behind:

Row | SMILES | IC50 [nM]
33 | O=C(O)c1c(CCS)cccc1OCc1ccccc1 [Compound 7, 2-(2-mercaptoethyl)-6-(phenylmethoxy)-benzoic acid] | 89.8
34 | O=C(O)c1ccc(COc2cccc(CCS)c2C(=O)O)cc1 [Compound 9, 2-[(4-carboxyphenyl)methoxy]-6-(2-mercaptoethyl)-benzoic acid] | 28.8
35 | O=C(O)c1ccc(COc2cccc(CCS)c2C(=O)O)cc1Br [Compound 20, 2-[(3-bromo-4-carboxyphenyl)methoxy]-6-(2-mercaptoethyl)-benzoic acid] | 18
36 | O=C(O)c1cccc(-c2ccc(CS)cc2C(=O)O)c1 [Compound 26, 4-(mercaptomethyl)-[1,1′-biphenyl]-2,3′-dicarboxylic acid] | 24.3
37 | O=C(O)c1ccccc1CS [Compound 31, 2-(mercaptomethyl)-benzoic acid] | 100000
38 | O=C(O)c1c(CCS)cccc1OCc1ccc(Cl)cc1 [Compound 32, 2-[(4-chlorophenyl)methoxy]-6-(2-mercaptoethyl)-benzoic acid] | 25
